Test results: US20230172894A1, “COMBINATION TREATMENT FOR FUMARATE-RELATED DISEASES” (IMCYSE SA, priority 2020, published 2023)
Structures can show the parent of a compound that is named as a salt. Where two headings read alike, the source gives them in different places.

Key:
[1] = system: experimental auto-immune encephalomyelitis (EAE) development in mice; details: Example 2; for mice died in group: 16 mice per group; for disease onset: peptide 30 μg/Alum s.c. days 4, 9, 14, 19, BG-12 100 mg/kg p.o. BID days 0 to 27; for disease onset / AUC (area under the curve) of EAE scores / MMS (mean maximal score) / end score (clinical EAE score 0-5): single agents vs negative control, combinations vs peptides only or BG-12 only
Source text: Example 2: Effect of the therapeutic administration of an immunogenic peptide comprising a MOG35-55 MHCII T cell epitope linked or not to an HCPYC oxidoreductase motif in combination with dimethyl fumarate (BG-12, […]™) on experimental auto-immune encephalomyelitis (EAE) development in mice.
The study used a total of 96 female C57BL/6 mice (Taconic Biosciences, 10 weeks old on Day 0). Mice were acclimated for 14 days prior to the first injection. Mice were assigned to groups in a balanced manner to achieve similar average weight across the groups at the start of the study.
Treatment 1 was administered once on each of the days indicated in Table 3, s.c., at a volume of 0.05 mL/site, each mouse receiving injection at two sites, for a total of 0.1 mL/mouse/dosing day. IMCY-0189 or MOG35-55 peptide total dose was 30 μg per administration.
BG-12 was dosed at 100 mg/kg.
All dosing were done at the same time (+/−1 hour) each dosing day. For the BID groups there were no less than 10 and no more than 14 hours between doses.
Lyophilized mouse MOG35-55 peptide with the sequence […] (SEQ ID NO:205), comprising the mouse Myelin Oligodendrocyte Glycoprotein (MOG35-55) MHCII T cell epitope […] (SEQ ID NO:169), was solubilized immediately before use. Lyophilized MOG35-55 peptide was thawed at room temperature for 10 minutes, resuspended in Na Acetate buffer 50 mM NaCl 0.9% pH 5.4 and incubated at room temperature for 10 minutes. Reconstituted MOG35-55 peptide was then mixed with Imject™ Alum Adjuvant before injection. Note that the positions 35 to 55 refer to the mature protein, i.e. after cleavage of the signal peptide (AA 1-29), defined by SEQ ID NO: 208. In the full-length amino acid sequence of MOG (SEQ ID NO: 184), said peptide would be at positions 64-84.
Lyophilized IMCY-0189 was thawed at room temperature for 10 minutes, resuspended in Na Acetate buffer 50 mM NaCl 0.9% pH 5.4 and incubated at room temperature for 10 minutes. Reconstituted peptide was then mixed with Imject™ Alum Adjuvant before injection.
(§1) For Treatment 2, vehicle was 0.5% HPMC, 0.2% Tween 20, and 50 mM citrate buffer at pH 4. BG-12 (Santa Cruz Biotechnology, sc-239774) and was prepared at least every 2 weeks. At each preparation the required amount of BG-12 was weighed out into a mortar and triturated with a pestle. Vehicle was then added in small increments and mixed until the final volume was reached. The material was then vortexed and sonicated in a water bath until a homogeneous suspension was obtained. Formulated BG-12 was stored at 4° C., stirring continuously.
EAE induction, scoring and statistical analysis were performed as described in example 1.
(§2) EAE development was evaluated by comparing clinical EAE readouts for all groups to the negative control (Saline/Vehicle) group.

[2] = system: experimental auto-immune encephalomyelitis (EAE) development in mice; details: Example 1; for AUC (area under the curve) of EAE scores: day 7 to 28 scoring; for AUC (area under the curve) of EAE scores / end score (clinical EAE score 0-5) / MMS (mean maximal score): vs negative control; for AUC (area under the curve) of EAE scores / disease onset / end score (clinical EAE score 0-5) / MMS (mean maximal score): combination also vs each single treatment; for disease onset / end score (clinical EAE score 0-5): peptide 100 μg/Alum s.c. days −21, −14, −7, BG-12 100 mg/kg p.o. BID days 0 to 27; for disease onset: vs negative control (Saline/Vehicle)
Source text: Example 1: Effect of the prophylactic administration of an immunogenic peptide comprising a MOG35-55 MHCII T cell epitope and a HCPYC oxidoreductase motif in combination with dimethyl fumarate (BG-12, […]™) on experimental auto-immune encephalomyelitis (EAE) development in mice.
The study used a total of 64 female C57BL/6 mice (Taconic Biosciences, 10 weeks old on Day 0). Mice were acclimated for 8 days prior to the first injection. Mice were assigned to groups in a balanced manner to achieve similar average weight across the groups at the start of the study.
Treatment 1 was administered once on each of the days indicated in Table 1, s.c., at a volume of 0.05 mL/site, each mouse receiving injection at two sites, for a total of 0.1 mL/mouse/dosing day, corresponding to 100 μg of peptide.
BG-12 was dosed at 100 mg/kg. All dosing was done at the same time (+/−1 hour) each dosing day. For the BID groups there were no less than 10 and no more than 14 hours between doses.
For Treatment 1, 0.9% NaCl solution was prepared at each dosing day. […] (SEQ ID NO: 185), comprising an oxidoreductase motif HCPYC (SEQ ID NO: 71), a linker GW, a murine Myelin Oligodendrocyte Glycoprotein (MOG35-55) MHCII T cell epitope […] (SEQ ID NO: 169) and a flanking sequence HLYR (SEQ ID NO: 186) (Smart Bioscience) was solubilized immediately before use. Lyophilized IMCY-0189 was thawed at room temperature for 10 minutes, resuspended in Na Acetate buffer 50 mM pH 5.4 and incubated at room temperature for 5 minutes. Reconstituted peptide was then mixed with Imject™ Alum Adjuvant before injection.
as §1, with “(or […]™, from Santa” for “(Santa”, “Biotechnology, catalog number” for “Biotechnology,”, “sc-239774)” for “sc-239774) and”, “once a week.” for “at least every 2 weeks.”
EAE was induced in all mice as follows: • Day 0, Hour 0—Immunization with a peptide corresponding to the amino acids 35-55 of MOG (MOG35-55)/CFA • Day 0, Hour 2—Injection of pertussis toxin • Day 1, Hour 0-2nd injection of pertussis toxin (24 hours after initial immunization).
Mice were injected subcutaneously at two sites in the back with the emulsion component (containing MOG35-55) of Hooke Kit™ MOG35-55/CFA Emulsion PTX, catalog number EK-2110 (lot #127, Hooke Laboratories, Lawrence Mass.). One site of injection was in the area of upper back, approximately 1 cm caudal of the neck line. The second site was in the area of lower back, approximately 2 cm cranial of the base of the tail. The injection volume was 0.1 mL at each site. Each mouse received 200 μg of MOG35-55.
Within 2 hours of the injection of emulsion, and then again 24 hours after the injection of emulsion, the pertussis toxin component of the kit was administered intraperitoneally. The pertussis toxin (lot #1008, Hooke Laboratories) was administered at 100 ng/dose for both injections and the volume of each injection was 0.1 mL.
Animals were scored daily starting from Day 7 to the end of the study. Scoring was performed blind, by a person unaware of both treatment and of previous scores for each mouse. In-between scores were assigned when the clinical signs fell between two above defined scores.
AUC, MMS, inflammation and demyelination, and NF-L levels quantification data were analyzed by performing Ordinary one-way ANOVA. Adjustment for multiplicity was performed using Holm-Sidak's method. Significant differences are referred as follows: *p<0.05, **p<0.01, ***p<0.001, ****p<0.0001.
as §2

| Compound | mice died in group [1] | disease onset [1] | AUC (area under the curve) of EAE scores [1] | MMS (mean maximal score) [1] | end score (clinical EAE score 0-5) [1] | mice died due to severe EAE ([2]; 16 mice per group) [mouse] | mice died in group ([2]; 16 mice per group) | AUC (area under the curve) of EAE scores [2] | disease onset [2] | end score (clinical EAE score 0-5) [2] | MMS (mean maximal score) [2] |
| --- | --- | --- | --- | --- | --- | --- | --- | --- | --- | --- | --- |
| HCPYCGWYRSPFSRVVHLYR [IMCY-0189] | 1 mice | postponed disease onset | statistically significant reduced | statistically significant reduced | reduced end score | 1 | 2 mice | statistically significant reduced | postponed disease onset | reduced end score | statistically significant reduced |
| COC(=O)/C=C/C(=O)OC [BG-12, dimethyl fumarate, reference compound] | No mice died | postponed disease onset | statistically significant reduced | statistically significant reduced | reduced end score |  | No mice died | statistically significant reduced | postponed disease onset | reduced end score | statistically significant reduced |
